The text below walks through data of PubChem BioAssay (NCI).

Several values for one entry are separate records, joined by “and”; a condition that tells them apart may be missing. Identical values can stand only once.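 A five-concentration, 48-hour dose response in 96-well plates underlies each endpoint, interpolated linearly between surrounding concentrations. GI50 = concentration required for 50% inhibition of growth. Definition used: TGI = concentration required for complete inhibition of growth.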

Test systems include NCI-H522 lung; NCI-H460 lung; SW-620 colon; NCI-H226 lung; HOP-92 NSCLC; 786-0 renal; OVCAR-3 ovarian; NCI-H23 lung; DU-145 prostate; SF-539 CNS.
Holding throughout (assay): NCI anticancer screen, dose series, 48 h

`C[C@]12C[C@H](O)[C@H]3[C@@H](CCC4=CC(=O)CC[C@@]43C)[C@@H]1CC[C@@H]2c1csc(-c2ccccc2)n1`: the TGI with NCI-H522 lung, with NCI-H460 lung, with SW-620 colon, in the assay on NCI-H226 lung, in the assay on HOP-92 NSCLC and in the assay with 786-0 renal was > 100 µM in each case. Further, the TGI in the assay on OVCAR-3 ovarian, in the assay on NCI-H23 lung, in the assay with DU-145 prostate and in the assay on SF-539 CNS was > 100 µM throughout.
For `N#CC1=C(N)NC(=O)NC12Nc1ccccc1N2`, the GI50 in the assay with NCI-H522 lung was > 100 µM; in the assay on NCI-H460 lung it was > 100 µM; in the assay on SW-620 colon, > 100 µM; in the assay with NCI-H226 lung, > 100 µM; with HOP-92 NSCLC, 31.3 µM; in the assay with 786-0 renal, > 100 µM. Besides, the GI50 with OVCAR-3 ovarian, in the assay with NCI-H23 lung, with DU-145 prostate and in the assay with SF-539 CNS was > 100 µM each time. The TGI in the assay on NCI-H522 lung, in the assay with NCI-H460 lung, in the assay on SW-620 colon, in the assay on NCI-H226 lung, with HOP-92 NSCLC and in the assay on 786-0 renal was > 100 µM in each case. Moreover, the TGI in the assay with OVCAR-3 ovarian, in the assay on NCI-H23 lung, in the assay with DU-145 prostate and in the assay on SF-539 CNS was > 100 µM in each case.
Take `CC(C)(C)OC(=O)Nc1ccc2c(c1)C(NC(=O)Nc1cccc(C#N)c1)CC(C)(C)O2` (centres undefined): the GI50 in the assay with NCI-H522 lung is 3.61 µM; in the assay with NCI-H460 lung, 3 µM; in the assay with SW-620 colon, 3.61 µM; in the assay with NCI-H226 lung, 2.29 µM; in the assay on HOP-92 NSCLC, 4.06 µM; in the assay on 786-0 renal, 5.05 µM. For the same compound, the GI50 was 2.15 µM in the assay on OVCAR-3 ovarian, 1.09 µM in the assay with NCI-H23 lung, 6.5 µM in the assay on DU-145 prostate and 5.19 µM with SF-539 CNS. Moreover, the TGI in the assay with NCI-H522 lung is 54.7 µM; with NCI-H460 lung, > 100 µM; in the assay on SW-620 colon, > 100 µM; in the assay on NCI-H226 lung, 42.8 µM; with HOP-92 NSCLC, > 28.3 µM; with 786-0 renal, > 100 µM. The TGI in the assay on OVCAR-3 ovarian is > 100 µM; in the assay on NCI-H23 lung it was > 81.3 µM; in the assay with DU-145 prostate, > 100 µM; with SF-539 CNS it was 44.1 µM.
For `CC1=NOC(=O)/C1=C/c1ccc2c(c1)OCO2`, the TGI in the assay with NCI-H522 lung is > 100 µM; in the assay on NCI-H460 lung, > 100 µM; in the assay with SW-620 colon, 60.9 µM; in the assay on NCI-H226 lung it was 49.8 µM; in the assay on HOP-92 NSCLC, > 100 µM; in the assay on 786-0 renal, 46.6 µM. For the same compound, the TGI with OVCAR-3 ovarian was 98.9 µM; in the assay on NCI-H23 lung, > 100 µM; in the assay on DU-145 prostate, 68.6 µM; in the assay on SF-539 CNS it was 64.9 µM.
Regarding `CCC1=C(CC2NCCc3ccccc32)CC2c3cc(OC)c(OC)cc3CCN2C1` (centres undefined), the GI50 in the assay with NCI-H522 lung is 4.22 µM; in the assay on NCI-H460 lung, 3.28 µM; with SW-620 colon it was 3.62 µM; in the assay with NCI-H226 lung, 4.7 µM; with HOP-92 NSCLC it was 1.23 µM; in the assay on 786-0 renal it was 4.04 µM. Besides, the GI50 with OVCAR-3 ovarian is 3.61 µM; in the assay with NCI-H23 lung it was 5.2 µM; in the assay on DU-145 prostate it was 3.24 µM; in the assay with SF-539 CNS, 4.84 µM. Further, the TGI was 11.7 µM and 3.57 µM in the assay with NCI-H460 lung; 13.4 µM and 6.81 µM with SW-620 colon; 37.4 µM and 4.74 µM with NCI-H226 lung; 9.48 µM and 16.6 µM in the assay on HOP-92 NSCLC; 17.1 µM and 2.9 µM in the assay on 786-0 renal; 19 µM and 11.3 µM in the assay on OVCAR-3 ovarian. In addition, the TGI with NCI-H23 lung was 35.9 µM and 13.1 µM; with DU-145 prostate, 12.7 µM and 2.59 µM; in the assay on SF-539 CNS, 16.4 µM and 2.85 µM.
As to `COc1cc(C(=O)c2cocc2C(=O)c2ccc3c(c2)OCO3)cc(OC)c1OC`, the TGI was 1.85 µM in the assay with NCI-H522 lung; 23.4 µM in the assay with NCI-H460 lung; > 57.8 µM in the assay with SW-620 colon; 21.1 µM in the assay on NCI-H226 lung; 35.4 µM in the assay on HOP-92 NSCLC; 39.7 µM with 786-0 renal. Further, the TGI came to 8.15 µM in the assay on OVCAR-3 ovarian, 26.2 µM in the assay on NCI-H23 lung, 21.2 µM in the assay on DU-145 prostate and 1.45 µM with SF-539 CNS.
As for `CC(SCc1ccccc1)C(=O)O` (centres undefined), the TGI in the assay on NCI-H522 lung, in the assay on NCI-H460 lung, in the assay with SW-620 colon, in the assay on NCI-H226 lung, in the assay on HOP-92 NSCLC and with 786-0 renal was > 100 µM in each case. Moreover, the TGI in the assay with OVCAR-3 ovarian, with NCI-H23 lung, with DU-145 prostate and in the assay with SF-539 CNS was > 100 µM in each case.
Regarding `CCn1c(-c2nonc2N)nc2c(N3CCCC3)nccc21`, the GI50 is 10.9 µM in the assay with NCI-H522 lung; 8.95 µM in the assay with NCI-H460 lung; 8.07 µM in the assay on SW-620 colon; 10 µM in the assay on NCI-H226 lung; 3.88 µM with HOP-92 NSCLC; > 18.6 µM with 786-0 renal. In addition, the GI50 is 14.7 µM in the assay on OVCAR-3 ovarian, 14.9 µM in the assay with NCI-H23 lung, 14 µM in the assay with DU-145 prostate and 10.8 µM in the assay on SF-539 CNS. The TGI with NCI-H522 lung is > 25 µM; with NCI-H460 lung, > 25 µM; in the assay on SW-620 colon, > 25 µM; in the assay on NCI-H226 lung, > 25 µM; in the assay on HOP-92 NSCLC it was 22.9 µM; in the assay with 786-0 renal, > 25 µM. The TGI in the assay with OVCAR-3 ovarian, with NCI-H23 lung, in the assay on DU-145 prostate and in the assay with SF-539 CNS was > 25 µM each time.
On to `O=C(/C=C/C12c3ccccc3C(c3ccccc31)C1C(=O)NC(=O)C12)c1ccccc1` (centres undefined), for which the GI50 is 1.8 µM in the assay with NCI-H522 lung; 1.68 µM in the assay on NCI-H460 lung; 1.92 µM with SW-620 colon; 2.28 µM with NCI-H226 lung; 1.41 µM with HOP-92 NSCLC; 1.7 µM in the assay with 786-0 renal. The GI50 in the assay on OVCAR-3 ovarian was 1.65 µM; in the assay with NCI-H23 lung, 1.79 µM; in the assay with DU-145 prostate it was 1.64 µM; in the assay on SF-539 CNS it was 1.63 µM. Besides, the TGI in the assay with NCI-H522 lung worked out at 3.69 µM; in the assay with NCI-H460 lung it was 4.65 µM; in the assay on SW-620 colon, 4.93 µM; with NCI-H226 lung, 6.51 µM; in the assay on HOP-92 NSCLC it was 3.52 µM; with 786-0 renal, 3.1 µM. In addition, the TGI in the assay with OVCAR-3 ovarian came out at 3.37 µM; in the assay on NCI-H23 lung, 4.01 µM; with DU-145 prostate, 3.51 µM; with SF-539 CNS it was 3.02 µM.
